Here are results for ten molecules from US20250092039A1, “GLUTARIMIDE-CONTAINING PAN-KRAS-MUTANT DEGRADER COMPOUNDS AND USES THEREOF” (Tiger Biotherapeutics Inc., priority 2022, published 2025).

Like-named read-outs stand apart in the source and are kept apart here.

One assay concerns SW620 cells. Nature of the assay: 3D cell growth inhibition of SW620 cells carrying endogenous KRAS G12V mutation (CellTiter-Glo 3D, GI50). The assay is classed as cell-based. The conditions noted are these: Homo sapiens, SW-620, 144 h, read-out: SW620 3D cell growth GI50. An outline of the steps:
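[…], compound exposure lasted 6 days at 37° C, added the day after plating from DMSO stocks over a concentration range. Cells: SW620, KRAS G12V, 3D culture.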
Background: Cellular ATP, detected with luciferase, serves as a proxy for viable cell number.

The next assay concerns the target KRAS G12V (Homo sapiens (Human), UniProt P01116, G12V). As to the kind of experiment: KRAS G12V degradation in SW620 cells (Western blot, DC50). The format is cell-based. The following applies: 24 hours. In short, it runs like this:
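KRAS levels were quantified by fluorescent Western blot as percent of the DMSO control after 24 h of compound exposure at 37° C in homozygous KRAS G12V SW620 cells. A four-parameter variable-slope fit of the dose-response gave the half-maximal degradation concentration.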

A further assay has as its target KRAS-G12V/RAF1 (Homo sapiens (Human), UniProt P01116, G12V). Nature of the assay: KRAS/RAF1 binding inhibition assay (AlphaScreen). An outline of the steps:
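IC50 comes from variable-slope nonlinear fits of % inhibition (relative to DMSO) against inhibitor concentration. The AlphaScreen signal tracks the interaction of GppNHp-bound KRAS G12V with the RAF1 RBD after 60 min at 4° C with compound in 2% DMSO final.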
(In Alpha technology, singlet oxygen from a donor bead excites a nearby acceptor bead.)

Sequence of KRAS G12V (P01116-2 other isoform, or with tags, fused parts or gaps G12V): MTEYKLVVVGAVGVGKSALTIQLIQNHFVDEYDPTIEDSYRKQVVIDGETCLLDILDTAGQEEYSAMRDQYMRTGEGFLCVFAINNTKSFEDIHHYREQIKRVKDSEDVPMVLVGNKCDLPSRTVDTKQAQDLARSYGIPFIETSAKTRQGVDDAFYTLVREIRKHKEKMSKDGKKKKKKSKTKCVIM
Sequence of KRAS-G12V/RAF1 (P01116-2 other isoform, or with tags, fused parts or gaps G12V): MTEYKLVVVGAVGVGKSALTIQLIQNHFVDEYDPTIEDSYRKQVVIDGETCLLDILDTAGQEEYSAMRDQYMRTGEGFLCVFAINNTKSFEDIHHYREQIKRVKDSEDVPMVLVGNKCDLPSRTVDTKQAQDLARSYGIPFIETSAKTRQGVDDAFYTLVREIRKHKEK

What is called GI50 is the concentration that inhibits growth by half. For orientation: DC50 means the concentration at which degradation of the target reaches its halfway point. A word on the IC50: it is the point on the concentration scale where inhibition reaches its midpoint. Consider `CCc1c(F)ccc2cc(O)cc(-c3ncc4c(N5CCC[C@@](C)(O)C5)nc(OCC5(CN6CCC7(CC6)CC(CN6CCN(c8ccc9c(c8)CN([C@H]8CCC(=O)NC8=O)C9=O)CC6)C7)CC5)nc4c3F)c12` [Compound 2, (S)-3-(5-(4-((7-((1-(((7-(8-ethyl-7-fluoro-3-hydroxynaphthalen-1-yl)-8-fluoro-4-((R)-3-hydroxy-3-methylpiperidin-1-yl)pyrido[4,3-d]pyrimidin-2-yl)oxy)methyl)cyclopropyl)methyl)-7-azaspiro[3.5]nonan-2-yl)methyl)piperazin-1-yl)-1-oxoisoindolin-2-yl)piperidine-2,6-dione], for which, in the assay on SW620 cells (SW620 cells, 6 days), the GI50 lay in the range of 10 to 100 nM. The molecule further showed a DC50 at KRAS G12V below 1 nM. In addition, the IC50 on KRAS-G12V/RAF1 was in the range of 20 to 200 nM.
Turning to `CCc1c(F)ccc2cc(O)cc(-c3ncc4c(N5CCC[C@@H](O)CC5)nc(OCC5(CN6CCC7(CC6)CC(CN6CCN(c8ccc9c(c8)CN([C@H]8CCC(=O)NC8=O)C9=O)CC6)C7)CC5)nc4c3F)c12` [Compound 116, (S)-3-(5-(4-((7-((1-(((7-(8-ethyl-7-fluoro-3-hydroxynaphthalen-1-yl)-8-fluoro-4-((R)-4-hydroxyazepan-1-yl)pyrido[4,3-d]pyrimidin-2-yl)oxy)methyl)cyclopropyl)methyl)-7-azaspiro[3.5]nonan-2-yl)methyl)piperazin-1-yl)-1-oxoisoindolin-2-yl)piperidine-2,6-dione], the GI50 with SW620 cells (SW620 cells, 6 days) was above 100 nM. Moreover, the DC50 on KRAS G12V is 1 to 10 nM. The molecule further had an IC50 on KRAS-G12V/RAF1 above 200 nM.
As to `CCc1c(F)ccc2cc(O)cc(-c3ncc4c(N5CCC[C@@H](O)CC5)nc(OCC5(CN6CCC(CN7CCN(c8ccc9c(c8)CN([C@H]8CCC(=O)NC8=O)C9=O)CC7)CC6)CC5)nc4c3F)c12` [Compound 117, (S)-3-(5-(4-((1-((1-(((7-(8-ethyl-7-fluoro-3-hydroxynaphthalen-1-yl)-8-fluoro-4-((R)-4-hydroxyazepan-1-yl)pyrido[4,3-d]pyrimidin-2-yl)oxy)methyl)cyclopropyl)methyl)piperidin-4-yl)methyl)piperazin-1-yl)-1-oxoisoindolin-2-yl)piperidine-2,6-dione], the GI50 in the assay on SW620 cells (SW620 cells, 6 days) was above 100 nM. The molecule further returned a DC50 at KRAS G12V of 1 to 10 nM. In addition, the IC50 at KRAS-G12V/RAF1 is above 200 nM.
In the case of `CCc1c(F)ccc2cc(O)cc(-c3ncc4c(N5CCC[C@@](C)(O)C5)nc(OCC5(CN6CC7(CC(CN8CCN(c9ccc%10c(c9)CN([C@@H]9CCC(=O)NC9=O)C%10=O)CC8)C7)C6)CC5)nc4c3F)c12` [Compound 11, (R)-3-(5-(4-((2-((1-(((7-(8-ethyl-7-fluoro-3-hydroxynaphthalen-1-yl)-8-fluoro-4-((R)-3-hydroxy-3-methylpiperidin-1-yl)pyrido[4,3-d]pyrimidin-2-yl)oxy)methyl)cyclopropyl)methyl)-2-azaspiro[3.3]heptan-6-yl)methyl)piperazin-1-yl)-1-oxoisoindolin-2-yl)piperidine-2,6-dione], the 50% growth inhibitory concentration (GI50) in the assay with SW620 cells (SW620 cells, 6 days) is 10 to 100 nM. The same molecule yielded a DC50 at KRAS G12V of 1 to 10 nM. On KRAS-G12V/RAF1, the IC50 is below 20 nM.
For `CCc1c(F)ccc2cc(O)cc(-c3ncc4c(N5CCOCC(C)(O)C5)nc(OCC5(CN6CCC7(CC6)CC(CN6CCN(c8ccc9c(c8)CN([C@H]8CCC(=O)NC8=O)C9=O)CC6)C7)CC5)nc4c3F)c12` (mixture of isomers) [Compound 91, (3S)-3-(5-(4-((7-((1-(((7-(8-ethyl-7-fluoro-3-hydroxynaphthalen-1-yl)-8-fluoro-4-(6-hydroxy-6-methyl-1,4-oxazepan-4-yl)pyrido[4,3-d]pyrimidin-2-yl)oxy)methyl)cyclopropyl)methyl)-7-azaspiro[3.5]nonan-2-yl)methyl)piperazin-1-yl)-1-oxoisoindolin-2-yl)piperidine-2,6-dione], the GI50 in the assay with SW620 cells was below 10 nM. Also, at KRAS G12V, the DC50 fell in the range of 1 to 10 nM. Moreover, on KRAS-G12V/RAF1, the IC50 lay within 20 to 200 nM.
`CCc1c(F)ccc2cc(O)cc(-c3ncc4c(N5CCC[C@@](C)(O)C5)nc(OCC5(CN6CCC(O)(CN7CCN(c8ccc9c(c8)CN([C@H]8CCC(=O)NC8=O)C9=O)CC7)CC6)CC5)nc4c3F)c12` [Compound 13, (S)-3-(5-(4-((1-((1-(((7-(8-ethyl-7-fluoro-3-hydroxynaphthalen-1-yl)-8-fluoro-4-((R)-3-hydroxy-3-methylpiperidin-1-yl)pyrido[4,3-d]pyrimidin-2-yl)oxy)methyl)cyclopropyl)methyl)-4-hydroxypiperidin-4-yl)methyl)piperazin-1-yl)-1-oxoisoindolin-2-yl)piperidine-2,6-dione]: in the assay on SW620 cells (SW620 cells, 6 days), the GI50 was in the range of 10 to 100 nM. The molecule also showed a DC50 on KRAS G12V of 1 to 10 nM. At KRAS-G12V/RAF1, this molecule registered an IC50 below 20 nM.
For `CCc1cccc2cc(O)cc(-c3ncc4c(N5CCC[C@@](C)(O)C5)nc(OCC5(CN6CC[C@H](CN7CC8(CCN(c9ccc%10c(c9)CN(C9CCC(=O)NC9=O)C%10=O)CC8)C7)C6)CC5)nc4c3F)c12` (stereo partly drawn) [Compound 22, 3-(5-(2-(((S)-1-((1-(((7-(8-ethyl-3-hydroxynaphthalen-1-yl)-8-fluoro-4-((R)-3-hydroxy-3-methylpiperidin-1-yl)pyrido[4,3-d]pyrimidin-2-yl)oxy)methyl)cyclopropyl)methyl)pyrrolidin-3-yl)methyl)-2,7-diazaspiro[3.5]nonan-7-yl)-1-oxoisoindolin-2-yl)piperidine-2,6-dione], in that order: 10 to 100 nM, above 100 nM and below 20 nM.
`CCc1c(F)ccc2cc(O)cc(-c3ncc4c(N5CCC(O)CC5)nc(OCC5(CN6CCC(CN7CCN(c8ccc9c(c8)CN([C@H]8CCC(=O)NC8=O)C9=O)CC7)CC6)CC5)nc4c3F)c12` [Compound 115, (S)-3-(5-(4-((1-((1-(((7-(8-ethyl-7-fluoro-3-hydroxynaphthalen-1-yl)-8-fluoro-4-(4-hydroxypiperidin-1-yl)pyrido[4,3-d]pyrimidin-2-yl)oxy)methyl)cyclopropyl)methyl)piperidin-4-yl)methyl)piperazin-1-yl)-1-oxoisoindolin-2-yl)piperidine-2,6-dione]: in the assay on SW620 cells (SW620 cells, 6 days), the 50% growth inhibitory concentration (GI50) is above 100 nM. For the same molecule, the DC50 at KRAS G12V is above 100 nM. At KRAS-G12V/RAF1, this molecule displayed an IC50 above 200 nM.
As for `CCc1c(F)ccc2cc(O)cc(-c3ncc4c(N5CCC[C@@](C)(O)C5)nc(OCC5(CN6CCN(CC7CCN(c8ccc9c(c8)CN([C@H]8CCC(=O)NC8=O)C9=O)CC7)CC6)CC5)nc4c3F)c12` [Compound 10, (S)-3-(5-(4-((4-((1-(((7-(8-ethyl-7-fluoro-3-hydroxynaphthalen-1-yl)-8-fluoro-4-((R)-3-hydroxy-3-methylpiperidin-1-yl)pyrido[4,3-d]pyrimidin-2-yl)oxy)methyl)cyclopropyl)methyl)piperazin-1-yl)methyl)piperidin-1-yl)-1-oxoisoindolin-2-yl)piperidine-2,6-dione], in the assay on SW620 cells (SW620 cells, 6 days), the GI50 was below 10 nM. For the same molecule, on KRAS G12V, the DC50 is below 1 nM. Further, the IC50 at KRAS-G12V/RAF1 is 20 to 200 nM.
As for `CCc1c(F)ccc2cc(O)cc(-c3ncc4c(N5CCC[C@@](C)(O)C5)nc(OCC5(CN6CCC(N7CCC8(CC7)CN(c7ccc9c(c7)CN(C7CCC(=O)NC7=O)C9=O)C8)CC6)CC5)nc4c3F)c12` (stereo partly drawn) [Compound 151, 3-(5-(7-(1-((1-(((7-(8-ethyl-7-fluoro-3-hydroxynaphthalen-1-yl)-8-fluoro-4-((R)-3-hydroxy-3-methylpiperidin-1-yl)pyrido[4,3-d]pyrimidin-2-yl)oxy)methyl)cyclopropyl)methyl)piperidin-4-yl)-2,7-diazaspiro[3.5]nonan-2-yl)-1-oxoisoindolin-2-yl)piperidine-2,6-dione], the 50% growth inhibitory concentration (GI50) in the assay on SW620 cells (SW620 cells, 6 days) is below 10 nM. The molecule also came in with a DC50 on KRAS G12V below 1 nM. This molecule had an IC50 on KRAS-G12V/RAF1 of 20 to 200 nM.
